# Legend:
# [1] = system: human monocytes (primary CD14+); experiment: Chemokine-induced cell migration trans-well assay; format: cell-based; conditions: RANTES 100 ng/ml and MCP-1 50 ng/ml, 2-4 hours, FACS count
# Experimental: Venous blood samples were obtained from healthy male donors in compliance with the Institutional Review Board at the Sheba Medical Center, Ramat Gan, Israel. PBMCs were isolated on Ficoll-Paque PLUS (GE Healthcare, Uppsala, Sweden) using 50 ml Leucosep tubes (Greiner Bio-One, Frickenhausen, Germany). Cells were washed in PBS (Kibbutz Beit Haemek, Israel) and incubated at 4° C. for 15 minutes in a buffer containing PBS and 0.5% bovine serum albumin (BSA) with human CD14 microbeads (Miltenyi Biotec, Bergisch Gladbach, Germany).
# Cells (10^6/ml) were pretreated for 20 min with VB-201 or VB-701 at the doses indicated in FIG. 5, or with solvent (Sol).
# To test for chemokine-induced cell migration, RANTES (100 ng/ml; Cat. No. 300-06, PeproTech, Israel) and MCP-1 (50 ng/ml; Cat. No. 300-04, PeproTech, Israel) were dissolved in RPMI-1640 medium supplemented with 0.5% fetal bovine serum (FBS) and placed at the lower chamber of QCM 24-well, […], migration assay plates (Corning-Costar, Corning, N.Y.). Cells (3×10^5) were seeded in the upper chamber and incubated for 2-4 hours. Subsequently, the number of cells which migrated to the lower compartment was determined by fluorescence-activated cell sorting (FACS).
# [2] = target: T1, TLR4 complex (Homo sapiens, UniProt O00206+Q9Y6Y9); experiment: LPS binding inhibition assay (biotin-LPS, FACS); conditions: biotin-LPS 100 ng/ml, FACS
# T1 construct: endogenous in cells; probably the human primary monocytes of b454
# T1 sequence (O00206 24-839): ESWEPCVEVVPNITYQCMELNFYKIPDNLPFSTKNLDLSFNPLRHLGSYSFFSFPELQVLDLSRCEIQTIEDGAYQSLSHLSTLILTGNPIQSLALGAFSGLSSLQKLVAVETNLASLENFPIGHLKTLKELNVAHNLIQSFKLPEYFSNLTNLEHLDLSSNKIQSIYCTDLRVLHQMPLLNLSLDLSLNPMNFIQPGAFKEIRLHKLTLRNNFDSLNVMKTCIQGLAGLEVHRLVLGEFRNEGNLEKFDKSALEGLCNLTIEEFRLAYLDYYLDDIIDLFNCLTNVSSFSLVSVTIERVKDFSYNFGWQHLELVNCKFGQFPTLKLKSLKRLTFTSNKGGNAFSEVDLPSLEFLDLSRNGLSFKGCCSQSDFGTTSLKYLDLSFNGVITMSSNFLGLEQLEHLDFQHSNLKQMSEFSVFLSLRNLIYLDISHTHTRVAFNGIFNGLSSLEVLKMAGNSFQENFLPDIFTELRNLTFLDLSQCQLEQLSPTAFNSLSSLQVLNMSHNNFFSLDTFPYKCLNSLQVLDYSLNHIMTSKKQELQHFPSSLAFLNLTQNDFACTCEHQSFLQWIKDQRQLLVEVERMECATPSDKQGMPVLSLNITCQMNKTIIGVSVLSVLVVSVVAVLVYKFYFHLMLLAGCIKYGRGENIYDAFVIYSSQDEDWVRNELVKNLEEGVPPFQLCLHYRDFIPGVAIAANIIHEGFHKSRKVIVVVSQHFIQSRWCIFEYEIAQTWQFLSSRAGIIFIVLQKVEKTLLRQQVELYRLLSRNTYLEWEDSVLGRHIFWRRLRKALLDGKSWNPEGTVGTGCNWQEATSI
# T1 sequence (Q9Y6Y9 17-160 limits assumed): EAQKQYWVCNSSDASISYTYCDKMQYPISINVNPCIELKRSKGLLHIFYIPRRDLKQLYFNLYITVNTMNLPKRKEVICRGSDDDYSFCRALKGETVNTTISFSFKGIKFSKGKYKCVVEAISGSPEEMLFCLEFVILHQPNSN
# Experimental: To assess interference with lipopolysaccharide (LPS) binding, VB-201 or VB-703 were incubated for 20 min with cells (10^6/ml) after which 100 ng/ml of biotin-LPS (InvivoGen) was added for an additional 15 minutes, all at 4° C. Cells were washed, resuspended in FACS buffer and analyzed on a FACS-Calibur device.
# [3] = system: NASH-induced mice; experiment: NASH and liver fibrosis mouse model (STZ + HFD), liver histology; format: in vivo; conditions: VB-703 4 mg/kg, telmisartan 10 mg/kg, once daily for three weeks
# Experimental: Neonatal male mice exposed to low-dose streptozotocin (STZ) develop liver steatosis with diabetes. Continuous high fat diet (HFD) increases lobular inflammation with foam cell-like macrophages, showing nonalcoholic steatohepatitis (NASH) pathology. NASH was induced in 40 male mice by a single subcutaneous injection of 200 μg per mouse of STZ two days after birth and feeding HFD [57 kcal % fat]) from four weeks of age. Vehicle, VB-703 (4 mg/kg), or telmisartan (10 mg/kg) as positive control, were administered once daily for three weeks, starting from six weeks of age. Mice were sacrificed at nine weeks of age.
# Liver pathology was used to determine the effect of VB-703 on liver inflammation and fibrosis. Histology slides were stained with hematoxylin/eosin (H&E) to assess inflammation. The inflammation score was determined as follows:
# Histology slides were stained with Sirius red to determine collagen content as a marker for the extent of fibrosis.
# [4] = system: nephrectomized rats; experiment: 5/6 nephrectomy chronic renal disease rat model (focal and segmental glomerulosclerosis); format: in vivo, Sprague Dawley (SD) Rats; conditions: VB-703 4 mg/kg
# Experimental: Male Sprague Dawley (SD) Rats (Harlan Laboratories, Israel) with an initial weight of 200 g were housed 2-3 per cage in IVC cages in dedicated HVAC (heat, ventilation, air conditioning animal facility at a temperature of 22±2° C. and RH (relative humidity) of 55±15%). Temperature and humidity were monitored continuously. The facility had no exposure to outside light and was maintained on automatic alternating cycles of 12 hours of light and 12 hours of dark. Animals were provided with a commercial rodent diet (Harlan Teklad TRM Rat/Mouse Diet) ad libitum and allowed free access to autoclaved water, supplied to each cage via polysulphone bottles with stainless steel sipper tubes. All animal work was approved by the Animal Care and Use Committee of Israel (IL-13-03-027).
# Rats were divided into three groups: (1) Healthy rats (n=3) in group A, (2) Sham group—subjected to chirurgical process but without kidney mass reduction (n=3) in group B, and (3) the rest were induced with chronic renal failure (n=32). Chronic renal failure was induced by a two stage (5/6) nephrectomy (Nx), with subtraction firstly of about ⅔ of the left kidney by left flank incision and, one week later, complete removal of the right kidney. General anesthesia consisted of intraperitoneal injection of ketamine 100 mg/kg and xylazine 20 mg/kg (0.85 ml ketamine+0.15 ml xylazine for each ml preparation; 1 μl/g BW was injected I.P).
# One week following the second surgery, rats were randomly assigned to the following experimental groups:
# Nephrectomized, orally administered with VB-703 4 mg/kg (n=8); and
# Nephrectomized, orally administered with telmisartan 10 mg/kg as positive control (n=8).
# Body weight (BW) was monitored throughout the study and rats were treated by oral gavage according to their body weight for 7 weeks. Rats were sacrificed by CO2 inhalation 8 weeks from removal of the right kidney (2nd surgery).
# Proteinuria and albuminuria was determined in urine specimens, collected during a 24-hour period, from animals housed in cages at 4 weeks (3 w of treatment) and 8 weeks (7 w of treatment) after the subtotal nephrectomy (2nd surgery). Urine samples were analyzed for: glucose, urea, sodium, potassium, creatinine, total protein, and albumin.
# Upon sacrifice, at 8 weeks, kidneys were collected, weighed and fixed in 4% formaldehyde.
# For light microscopy, paraffin-embedded tissue slides of 4 μm were stained with Periodic Acid-Schiff (PAS) reagent, Masson's Trichrome and Hematoxylin & Eosin.
# Glomerular sclerosis index. Glomerulosclerosis was assessed by PAS-stained sections using a semiquantitative scoring system. The extent of glomerulosclerosis was evaluated by examining mostly 100 randomly selected glomeruli at a magnification of ×400 and applying a score system according to the percentage of sclerosed glomerular area. The score was graded from 0 to 4: (0=0% area; 1=1-25%; 2=26-50%, 3=51-75%, 4=76% and above). The mean of all scored glomeruli was presented. Moreover, the extent of global and segmental glomerulosclerosis was evaluated in the same glomeruli, where <80% sclerosis was referred to as segmental and >80% was referred to as global.
# Glomerular area. The glomerular area of mostly 100 randomly selected glomeruli at a magnification of ×100 was quantitated by counting squares covered by glomeruli area using a grid and the mean glomeruli area was calculated.
# Renal tissues were fixed in 4% formaldehyde and embedded in paraffin. The paraffin-embedded tissues were then cut to form tissue slides of 4 μm. Immunohistochemistry of the paraffin-embedded tissue slides was analyzed using antibodies in the following concentration: monoclonal mouse anti rat CD-68 (ED-1, Serotec MCA341) 1:25. For quantitation of interstitial CD68+ staining, the number of positive cells was counted in 20 randomly selected non-overlapping fields per animal, and the mean value was presented. […]
# [5] = system: kidney of nephrectomized rats; experiment: Real-time PCR of pro-fibrotic markers in kidney of nephrectomized rats; format: in vivo, Sprague Dawley (SD) Rats
# Experimental: Kidney RNA was extracted with an RNeasy Fibrous Tissue Mini kit (Qiagen) and after DNAse I treatment, single-stranded cDNA was synthesized from 2 μg total RNA using the qScript cDNA Synthesis Kit (Quanta Biosciences) and diluted for real-time PCR. The expression of collagen 4α, fibronectin and TGFβ was quantified using the 7300 Real Time PCR System (Applied Biosystems). The assay was performed according to manufacturer instructions using the primers (Assay ID) represented at the table below supplied by Applied Biosystems. Data were normalized to the reference gene TATA box Binding Protein (TBP) and presented as relative mRNA levels compared with Sham PBS 0.5% Eth treatment (Table 1).
# [6] = Nx rats, Telmisartan 10 mg/kg, 8 weeks, Mean ± S.E
# [7] = telmisartan 10 mg/kg, oral 7 weeks, vs Nx PBS 0.5% Eth
# [8] = compared to Nx PBS 0.5% Eth treatment, VB-703 4 mg/kg, telmisartan 10 mg/kg
# [9] = normalized to TBP, relative to Sham PBS 0.5% Eth, mean±SEM
Structure (SMILES),chemokine-induced migration of human monocytes [1],LPS-biotin binding to human monocytes (primary CD14+) [2],decrease of liver fibrosis compared to vehicle treated mice (Sirius red) [3] [%],"Glomerular sclerosis Global % [4, 6] [%]","Glomerular sclerosis Global & Segmental % [4, 6] [%]","Glomerular sclerosis Segmental % [4, 6] [%]","glomerular and interstitial monocyte/macrophage infiltration (CD68 positive cells) ([4]; telmisartan 10 mg/kg, 8 weeks)","reduction of damaged glomeruli percent [4, 7] [%]","reduction of sclerotic glomeruli [4, 7] [%]","reduction of Collagen IV expression [5, 8] [%]","reduction of TGF-β expression [5, 8] [%]","reduction of fibronectin expression [5, 8] [%]","Collagen IV mRNA expression (relative mRNA level) [5, 9]","TGF-β mRNA expression (relative mRNA level) [5, 9]","fibronectin mRNA expression (relative mRNA level) [5, 9]"
"CCCCCCCCCCCCCCCCOCC(COP(=O)([O-])OCC[n+]1ccccc1)OCCCCC(=O)OC (stereo not drawn) [VB-704, 1-hexadecyl-2-(4′-carboxymethyl)butyl-glycero-sn-3-phosphoric acid pyridiniumethyl ester]",inhibits,does not inhibit,–,–,–,–,–,–,–,–,–,–,–,–,–
"CCCc1nc2c(C)cc(-c3nc4ccccc4n3C)cc2n1Cc1ccc(-c2ccccc2C(=O)O)cc1 [telmisartan, reference compound]",–,–,47,1.9 ± 1.60,21.0 ± 5.45,19.1 ± 4.30,did not produce a significant effect,31,57,41,44,23,4.4±0.23,4.7±0.52,9.8±2.09

# Source: patent publication US10464957B2, “Oxidized lipids and methods of use thereof” (Vascular Biogenics Ltd., priority 2014, dated 2019)
